The values that follow come from paper PMC10082729, “First study on in vitro antiviral and virucidal effects of flavonoids against feline infectious peritonitis virus at the early stage of infection” (Veterinary World, 2023).

Where two headings read alike, the source gives them in different places.

For one series, the system named is Duck hepatitis A virus. On the set-up: method as in PMID 27927057. Conditions: in vitro, at 20 µg/mL; cited from earlier work.
Series [1] deals with African swine fever virus. The following applies: in vitro, at 10 µg/mL; cited from earlier work.
Another series in a line: in vitro. Conditions: cat, CC50.
The test system of a further series is Influenza A virus. The following applies: in vitro; cited from earlier work.
In a further series the test system is SARS-CoV-2 RdRp. The following applies: in vitro; cited from earlier work.
Series [2] deals with Respiratory syncytial virus. The following applies: cited from earlier work.
In another series the test system is FIPV. As to the kind of experiment: Post-viral entry assay, FIPV-infected cells by IPMA. Conditions: Alphacoronavirus 1, CRFK.
The next series has as its system Marek’s disease virus. Set-up: method as in PMID 33008383. The following applies: at 20 µg/mL; cited from earlier work.
The next series has as its system SARS-CoV-2. Conditions: in vitro; cited from earlier work.

On to `COc1ccc(-c2cc(=O)c3c(O)cc(O[C@@H]4O[C@H](CO[C@@H]5O[C@@H](C)[C@H](O)[C@@H](O)[C@H]5O)[C@@H](O)[C@H](O)[C@H]4O)cc3o2)cc1` [Linarin], for which the CC50 with CRFK cells was over 200 µM. Moreover, the inhibition result in the series on Duck hepatitis A virus is “Duck hepatitis A virus (in vitro: 69.3% inhibition at 20 µg/mL)”.
Turning to `COc1ccc(-c2cc(=O)c3c(O)cc(O[C@@H]4O[C@H](CO[C@@H]5O[C@@H](C)[C@H](O)[C@@H](O)[C@H]5O)[C@@H](O)[C@H](O)[C@H]4O)cc3o2)cc1O` [Diosmin], in series [1], the inhibition entry is recorded as “African swine fever virus (in vitro: 40% inhibition at 10 µg/mL)”. For the same compound, the CC50 at 24 h in the series “in vitro” was over 200 µM.
Broadly, the EC50 is the concentration giving half of the maximal effect. Usually IC50 stands for the concentration at which inhibition is half-maximal. In general, EC90 refers to the concentration at which the effect reaches the 90% level. Lower therefore signals an effect from little substance. Regarding `O=c1cc(-c2ccc(O)c(O)c2)oc2cc(O)cc(O)c12` [Luteolin], in the series with Influenza A virus, the EC50 is 6.89 to 7.15 µM. Also, in the series on CRFK cells (cat, 24 h), the CC10 came to 136.80 ± 2.37 µM and the CC50 stood at 248 ± 3.4 µM. Also, the IC50 with SARS-CoV-2 RdRp is 4.6 µM. In series [2], the “antiviral activity (in vitro concentration)” value is 2.08 to 24.71 µM. Besides, in the series on FIPV, a half-maximal response (EC50) required 36.28 ± 0.03 µM and the concentration for an effect of 90% (EC90) stood at 66 ± 1.82 µM. In the series “in vitro”, this compound had a CC50 at 24 h of over 200 µM.
On to `O=C(O)[C@H]1O[C@@H](Oc2cc3oc(-c4ccccc4)cc(=O)c3c(O)c2O)[C@H](O)[C@@H](O)[C@@H]1O` [Baicalin], for which the virucidal effect entry with Marek’s disease virus is “Virucidal effect”. In addition, the EC50 with SARS-CoV-2 is 8 to 9 µM. In addition, the CC50 at 24 h in the series “in vitro” was over 200 µM.
